The source made the active and inactive calls. No rule for the calls is given here.
Biological target: Influenza A virus M2 proton channel (A/TW/4845/1999 H1N1)
Assay: M2 proton channel binding, NMR based, influenza A virus H1N1 strain (AID 1549)
Conditions: NMR binding screen, M2 protein

Row | Compound | Kd
1 | O=S(=O)(NCc1ccco1)N1CCOCC1 | > 4 mM (inactive)
2 | Cc1ncc(CC(=O)O)s1 | > 4 mM (inactive)
3 | Cn1c(=O)[nH]c2nc[nH]c2c1=O | > 4 mM (inactive)
4 | c1ccc(CCc2nc(-c3cccnc3)no2)cc1 | > 4 mM (inactive)
5 | Cc1cccc(-n2c(N)cc(=O)[nH]c2=S)c1 | > 4 mM (inactive)
6 | CC(=O)OC1CCC2(O)CC1(C)CCC1C2CC1(C)C (stereo not drawn) | > 4 mM (inactive)
7 | CN1C2CCC1CC(OC(=O)C(CO)c1ccccc1)C2 (stereo not drawn) | > 4 mM (inactive)
8 | CN1C(=O)c2ccc(C(=O)NC3CCCCC3)cc2C1=O | > 4 mM (inactive)
9 | O=C(/C=C/c1ccccc1)c1ccc(O)cc1 | > 4 mM (inactive)
10 | O=c1ccc2ccc(O)cc2o1 | > 4 mM (inactive)
11 | CC1(C)C(=O)N(O)C(C)(C)C(=O)N1O | > 4 mM (inactive)
12 | NS(=O)(=O)c1ccc(NC(=O)c2cccs2)cc1 | > 4 mM (inactive)
13 | CCc1ccc(/C=N/n2cnnc2)cc1 | > 4 mM (inactive)
14 | COc1ccccc1NC(N)=S | > 4 mM (inactive)
15 | CC(C)(O)[C@@H]1Cc2cc3ccc(=O)oc3cc2O1 | > 4 mM (inactive)
16 | Cc1nc(-c2ccc(C(=O)O)s2)cs1 | > 4 mM (inactive)
17 | COc1ccc(-c2nnc(-c3ccc(N)cc3)o2)cc1 | > 4 mM (inactive)
18 | O=C(O)c1ccc(-c2cccs2)s1 | > 4 mM (inactive)
19 | Cn1ccc(NC(=S)NC2CCCC2)n1 | > 4 mM (inactive)
20 | CC(=O)O[C@H]1CC[C@@]2(C)C(=CC(=O)C3C4CCC(C(C)CCCC(C)C)[C@@]4(C)CCC32)C1 (stereo partly drawn) | > 4 mM (inactive)
21 | Cn1cnc2cc(NC(=O)c3ccco3)ccc21 | > 4 mM (inactive)
22 | c1ccc(-c2noc(-c3ccco3)n2)nc1 | > 4 mM (inactive)
23 | Cc1ccc(S(=O)(=O)CCc2ccccn2)cc1 | > 4 mM (inactive)
24 | Cc1nc2ccccc2c(=O)n1-c1cccc(O)c1 | > 4 mM (inactive)
25 | O=C(O)c1ccc(Nc2nncc(=O)[nH]2)cc1 | > 4 mM (inactive)

Row | Compound | Kd
26 | CC(=O)c1c(C)nc(-c2ccc(F)cc2)n1O | > 4 mM (inactive)
27 | O=c1/c(=C/c2ccccc2F)sc2ncnn12 | > 4 mM (inactive)
28 | O=C(c1cnsn1)N1CCN(c2ccccn2)CC1 | > 4 mM (inactive)
29 | NC1CS(=O)(=O)CC1O (stereo not drawn) | > 4 mM (inactive)
30 | CC1(C)C(=O)CC[C@@]2(C)C1C[C@@H](O)[C@@]1(C)C3=CC(=O)O[C@@H](c4ccoc4)[C@]3(C)CCC21 (stereo partly drawn) | > 4 mM (inactive)
31 | CN(C)c1ccc(/C=C2/NC(=S)NC2=O)cc1 | > 4 mM (inactive)
32 | c1ccc2[nH]c(SCc3cscn3)nc2c1 | > 4 mM (inactive)
33 | CNC(=O)C(=O)Nc1ccc(C)c(C)c1 | > 4 mM (inactive)
34 | O=C(Nc1ccc2c(c1)OCO2)c1cccc(F)c1 | > 4 mM (inactive)
35 | CCC(C)C(=O)c1c(O)c(C)c2oc3c(C)c(O)c(C(=O)C(C)CC)c(O)c3c2c1O (stereo not drawn) | > 4 mM (inactive)
36 | Cc1cccc(C(C)C)c1NC(=O)c1cccnc1 | > 4 mM (inactive)
37 | COC(=O)C1CSCC1=O (stereo not drawn) | > 4 mM (inactive)
38 | Cn1c(=O)n(-c2cccc(Cl)c2)c(=O)n1C | > 4 mM (inactive)
39 | COCc1cc(Cl)nc(-c2csc(C)n2)n1 | > 4 mM (inactive)
40 | COCCOc1nc2ccccc2nc1C | > 4 mM (inactive)
41 | CN1CCN(CC(=O)N2CCc3ccccc32)CC1 | > 4 mM (inactive)
42 | Cc1ccccc1NC(=O)C1CCC(=O)N1 (stereo not drawn) | > 4 mM (inactive)
43 | NC(=O)c1cn(-c2ccccc2)nc1-c1cccnc1 | > 4 mM (inactive)
44 | Nc1nc(-c2ccc(F)c(F)c2)cs1 | > 4 mM (inactive)
45 | C[C@H]1OC(O[C@H]2[C@@H](O)CC(O[C@H]3[C@@H](O)C[C@H](O[C@H]4CC[C@]5(C)C6CC[C@]7(C)[C@@H](C8=CC(=O)OC8)[C@@H](O)C[C@]7(O)[C@@H]6CC[C@@H]5C4)O[C@@H]3C)O[C@@H]2C)C[C@H](O)C1O (stereo partly drawn) | > 4 mM (inactive)
46 | CC1(C)CC(=O)c2cnn(-c3nc4ccccc4[nH]3)c2C1 | > 4 mM (inactive)
47 | OC1CCN(C(=S)NC2CC2)CC1 | > 4 mM (inactive)
48 | Cc1ccc(/C=C2/NC(=S)NC2=O)s1 | > 4 mM (inactive)
49 | O=C(O)c1csc2ccccc12 | > 4 mM (inactive)
50 | O=c1c2ccccc2nc2n1CCCCN2 | > 4 mM (inactive)

Row | Compound | Kd
51 | CC12CCC(O)CC1CCC1C2[C@H](O)CC2(C)C(C3=CC(=O)OC3)CCC12O (stereo partly drawn) | > 4 mM (inactive)
52 | N/C(=N/S(=O)(=O)c1cccs1)c1ccccc1 | > 4 mM (inactive)
53 | O=C(O)C1COc2ccccc2C1 (stereo not drawn) | > 4 mM (inactive)
54 | OCc1ccc2ncccc2c1 | > 4 mM (inactive)
55 | Cc1cn2c(-c3cccnc3)nnc2s1 | > 4 mM (inactive)
56 | NC(=O)CS(=O)(=O)c1ccc(Cl)cc1 | > 4 mM (inactive)
57 | CCN1C(=O)c2c(C)nc3ccccc3c2C1=O | > 4 mM (inactive)
58 | NCc1oc(-c2ccccc2)cc1C(=O)O | > 4 mM (inactive)
59 | Clc1ccccc1OCCn1ccnc1 | > 4 mM (inactive)
60 | COc1cccc(-c2cc(=O)c3cc(OC)ccc3o2)c1 | > 4 mM (inactive)
61 | COc1cccc2c(=O)n(CC(N)=O)ccc12 | > 4 mM (inactive)
62 | CN1C(=O)CC[C@H]1c1cccnc1 | > 4 mM (inactive)
63 | CN1CC(=O)N=C1N | > 4 mM (inactive)
64 | NC(=O)CN1CCC(c2nc3ccccc3[nH]2)CC1 | > 4 mM (inactive)
65 | CC1(C)Cc2nc3[nH]c(=S)[nH]c(=O)c3cc2CO1 | > 4 mM (inactive)
66 | O=P(O)(Cc1ccccc1)c1ccccc1 | > 4 mM (inactive)
67 | C(=N\c1nccs1)/c1cccnc1 | > 4 mM (inactive)
68 | O=S1(=O)CCC(NCCO)C1 (stereo not drawn) | > 4 mM (inactive)
69 | CN(C)Cc1c(N)cccc1O | > 4 mM (inactive)
70 | CCCCCC(=O)Cc1cc(O)cc(O)c1C(=O)Oc1cc(CC(=O)CCCCC)c(C(=O)O)c(OC)c1 | > 4 mM (inactive)
71 | O=C1c2ccccc2C(=O)N1Cc1ccco1 | > 4 mM (inactive)
72 | C/C(N)=C/C(=O)N1CCCCC1 | > 4 mM (inactive)
73 | [O-][n+]1cc(O)c(CN2CCOCC2)c2ccccc21 | > 4 mM (inactive)
74 | O=C(O)c1cc(=O)c2cccc(O)c2[nH]1 | > 4 mM (inactive)
75 | Oc1ccc(C(=S)N2CCCCC2)cc1Cl | > 4 mM (inactive)

Row | Compound | Kd
76 | Oc1ccc(-n2ccnc2)cc1 | > 4 mM (inactive)
77 | Oc1ccc(C(=S)N2CCOCC2)cc1 | > 4 mM (inactive)
78 | Cn1c(O)c(C=NCC2CCNCC2)c(=O)n(C)c1=O | > 4 mM (inactive)
79 | CS(=O)(=O)N1CCN(c2ccccc2F)CC1 | > 4 mM (inactive)
80 | CCOC(=O)C1CCN(Cc2ccccc2)CC1=O (stereo not drawn) | > 4 mM (inactive)
81 | OC[C@@H]1CCCN2CCCC[C@H]12 | > 4 mM (inactive)
82 | O=C1COc2cc(O)ccc21 | > 4 mM (inactive)
83 | CS(=O)(=O)N1CCC(C(=O)NC2CCCC2)CC1 | > 4 mM (inactive)
84 | Nc1nncn1C(=O)c1c(Cl)cccc1Cl | > 4 mM (inactive)
85 | Cc1cc(C(=O)N2CCN(c3ncccn3)CC2)c(C)o1 | > 4 mM (inactive)
86 | O=C(NCC1CCNCC1)c1ccccn1 | > 4 mM (inactive)
87 | Cc1cc(NC(=O)c2cnn3cccnc23)no1 | > 4 mM (inactive)
88 | CC(=O)Nc1ccc(N(C)C(C)=O)cc1 | > 4 mM (inactive)
89 | O=C(O)C1CC(=O)N(Cc2ccco2)C1 (stereo not drawn) | > 4 mM (inactive)
90 | CN1CCn2c1nc(N1CCCCC1)nc2=O | > 4 mM (inactive)
91 | CN(c1ccccc1C(=O)N1CCOCC1)S(C)(=O)=O | > 4 mM (inactive)
92 | O=C(c1ccccc1)c1ccc(N2CCNCC2)cc1 | > 4 mM (inactive)
93 | COC(=O)C1CCN(c2ccc(Cl)nn2)CC1 | > 4 mM (inactive)
94 | COc1ccc(/C=C/c2cc(O)cc(O)c2)cc1 | > 4 mM (inactive)
95 | c1ccc(CCN2CCN(CCc3ccccn3)CC2)nc1 | > 4 mM (inactive)
96 | CCOC(=O)C1CCNCC1 | > 4 mM (inactive)
97 | CCOC(=O)Cc1cc(=O)n2[nH]c(C)cc2n1 | > 4 mM (inactive)
98 | Cc1ccccc1NC(=S)NCCO | > 4 mM (inactive)
99 | c1ccc2[nH]c(CCn3cncn3)nc2c1 | > 4 mM (inactive)
100 | Cc1c(C)n2c(SCC(N)=O)nnc2[nH]c1=O | > 4 mM (inactive)

Row | Compound | Kd
101 | Cc1cc(C(=O)N2CCN(c3ccccn3)CC2)c(C)o1 | > 4 mM (inactive)
102 | Nc1nc(-c2nc3ccccc3[nH]2)cs1 | > 4 mM (inactive)
103 | O=C1CSC2(CN3CCC2CC3)N1 (stereo not drawn) | > 4 mM (inactive)
104 | O=C(O)c1cc(=O)[nH]c2ccccc12 | > 4 mM (inactive)
105 | Nc1nc(-c2ccc(Cl)cc2)nn1C(=O)c1cccnc1 | > 4 mM (inactive)
106 | NC(=O)CSc1nc2[nH]ncc2c(=O)[nH]1 | > 4 mM (inactive)
107 | Cc1cc(NC(=O)Cc2c(F)cccc2Cl)no1 | > 4 mM (inactive)
108 | Cc1c(N=Cc2ccco2)c(=O)n(-c2ccccc2)n1C | > 4 mM (inactive)
109 | OCC(O)Cc1ccc2c(c1)OCO2 (stereo not drawn) | > 4 mM (inactive)
110 | c1coc(-c2nc(-c3ccncc3)no2)c1 | > 4 mM (inactive)
111 | CC(=O)O[C@H]1CC[C@@]2(C)C(C[C@@H](OC(C)=O)[C@@]3(C)C4=CC(=O)O[C@@H](c5ccoc5)[C@]4(C)CCC23)C1(C)C (stereo partly drawn) | > 4 mM (inactive)
112 | O=C(Nc1ccccn1)c1cc(-n2cnnc2)ccc1Cl | > 4 mM (inactive)
113 | COC(=O)Cn1c2ccccc2c2nc(C)sc21 | > 4 mM (inactive)
114 | Cn1cnc2c1c(=O)[nH]c(=O)n2C | > 4 mM (inactive)
115 | C=C(C)C1(O)OC(=O)C=C1OC (stereo not drawn) | > 4 mM (inactive)
116 | COC1(C)CCC2OC2(C)CCC2C1CC2(C)C (stereo not drawn) | > 4 mM (inactive)
117 | O=C(O)c1ccc(NCc2cccnc2)cc1 | > 4 mM (inactive)
118 | NC(=O)CSc1ccc(Br)cc1 | > 4 mM (inactive)
119 | NC(=O)c1ccc(NC(=O)C2CC2)cc1 | > 4 mM (inactive)
120 | COc1cc(N)ccc1NC(=O)c1cccs1 | > 4 mM (inactive)
121 | OCC1COc2ccccc2O1 (stereo not drawn) | > 4 mM (inactive)
122 | Cc1cccc(N2C(=O)CCC2=O)n1 | > 4 mM (inactive)
123 | CSc1ccn(CCC(=O)O)c(=O)n1 | > 4 mM (inactive)

Source: PubChem BioAssay AID1549 (Sanford-Burnham Center for Chemical Genomics, 2009)
